From patent US11771662B2, “Analgesic formulation for control of pain in dogs” (Kansas State University Research Foundation, priority 2017, dated 2023)
“And” between values parts separate entries of the source, which are not always exact repeats. Equal entries are not always repeated.

Assays:
[1] = Plasma methadone concentrations by liquid chromatography/triple quadrupole mass spectrometry (Example I); conditions: for concentration at 0.667 h / concentration at 1 h / concentration at 2 h / concentration at 4 h / concentration at 6 h / concentration at 8 h / concentration at 12 h / concentration at 24 h / concentration at 0 h / concentration at 0.333 h: dog, in vivo, Mean plasma methadone concentration; for Plasma methadone concentration, individual dogs: Dog 1-6
[2] = Plasma methadone, fluconazole, naltrexone and naltrexone metabolite concentrations (Example IV)
Excerpt: Anesthesia was monitored by licensed veterinary technicians.

[3] = system: dogs undergoing ovariohysterectomy; test: Ease of IV catheter placement in ovariohysterectomy clinical trial (Example IV); conditions: 0.5 mg/kg SC q 4 h; with acepromazine 0.05 mg/kg SC
[4] = system: dogs undergoing ovariohysterectomy; test: Pre-anesthetic sedation in ovariohysterectomy clinical trial (Example IV); conditions: 0.5 mg/kg SC q 4 h; with acepromazine 0.05 mg/kg SC
[5] = humans; cited from earlier work
[6] = Plasma methadone, naltrexone and naltrexone metabolites, multiple oral doses (Example III); assay type: in vivo, dog; conditions: oral methadone/fluconazole/naltrexone formulation, both groups; throughout dosing and at least 12 hours after the last dose
Excerpt: Twelve healthy Beagle dogs were divided into two groups of 6 each in a parallel study design. […] Group 1 simulated a patient dropped off the night before surgery, while Group 2 simulated a patient dropped off in the morning for same day early afternoon surgery. Rectal temperature was monitored as a marker of central opioid effects throughout the study and von Frey thresholds were obtained to assess the antinociceptive effects.

CCC(=O)C(CC(C)N(C)C)(c1ccccc1)c1ccccc1 (racemic) [methadone]
concentration at 0.667 h ([1]; methadone 1 mg/kg PO 24 h after starting fluconazole 2.5 mg/kg PO q 12 h, 0.667 hr): 5.2 ng/mL
concentration at 1 h ([1]; methadone 1 mg/kg PO 24 h after starting fluconazole 2.5 mg/kg PO q 12 h, 1 hr): 16 ng/mL
concentration at 2 h ([1]; methadone 1 mg/kg PO 24 h after starting fluconazole 2.5 mg/kg PO q 12 h, 2 hr): 28.4 ng/mL
concentration at 4 h ([1]; methadone 1 mg/kg PO 24 h after starting fluconazole 2.5 mg/kg PO q 12 h, 4 hr): 23.3 ng/mL
concentration at 6 h ([1]; methadone 1 mg/kg PO 24 h after starting fluconazole 2.5 mg/kg PO q 12 h, 6 hr): 19.2 ng/mL
concentration at 8 h ([1]; methadone 1 mg/kg PO 24 h after starting fluconazole 2.5 mg/kg PO q 12 h, 8 hr): 15.9 ng/mL
concentration at 12 h ([1]; methadone 1 mg/kg PO 24 h after starting fluconazole 2.5 mg/kg PO q 12 h, 12 hr): 11.6 ng/mL
concentration at 24 h ([1]; methadone 1 mg/kg PO 24 h after starting fluconazole 2.5 mg/kg PO q 12 h, 24 hr): 5.6 ng/mL
concentration at 0 h ([1]; methadone 1 mg/kg PO 24 h after starting fluconazole 5 mg/kg PO q 12 h, 0 hr): 0 ng/mL
concentration at 0.333 h ([1]; methadone 1 mg/kg PO 24 h after starting fluconazole 5 mg/kg PO q 12 h, 0.333 hr): 14 ng/mL
concentration at 0.667 h ([1]; methadone 1 mg/kg PO 24 h after starting fluconazole 5 mg/kg PO q 12 h, 0.667 hr): 10.3 ng/mL
concentration at 1 h ([1]; methadone 1 mg/kg PO 24 h after starting fluconazole 5 mg/kg PO q 12 h, 1 hr): 24.3 ng/mL
concentration at 2 h ([1]; methadone 1 mg/kg PO 24 h after starting fluconazole 5 mg/kg PO q 12 h, 2 hr): 43.6 ng/mL
concentration at 4 h ([1]; methadone 1 mg/kg PO 24 h after starting fluconazole 5 mg/kg PO q 12 h, 4 hr): 42.5 ng/mL
concentration at 6 h ([1]; methadone 1 mg/kg PO 24 h after starting fluconazole 5 mg/kg PO q 12 h, 6 hr): 33.9 ng/mL
concentration at 8 h ([1]; methadone 1 mg/kg PO 24 h after starting fluconazole 5 mg/kg PO q 12 h, 8 hr): 27.6 ng/mL
concentration at 12 h ([1]; methadone 1 mg/kg PO 24 h after starting fluconazole 5 mg/kg PO q 12 h, 12 hr): 20.2 ng/mL
concentration at 24 h ([1]; methadone 1 mg/kg PO 24 h after starting fluconazole 5 mg/kg PO q 12 h, 24 hr): 8.3 ng/mL
concentration at 0 h ([1]; methadone 1 mg/kg PO 24 h after starting fluconazole 5 mg/kg PO q 24 h, 0 hr): 0 ng/mL
concentration at 0.333 h ([1]; methadone 1 mg/kg PO 24 h after starting fluconazole 5 mg/kg PO q 24 h, 0.333 hr): 5.8 ng/mL
concentration at 0.667 h ([1]; methadone 1 mg/kg PO 24 h after starting fluconazole 5 mg/kg PO q 24 h, 0.667 hr): 22.4 ng/mL
concentration at 1 h ([1]; methadone 1 mg/kg PO 24 h after starting fluconazole 5 mg/kg PO q 24 h, 1 hr): 33.7 ng/mL
concentration at 2 h ([1]; methadone 1 mg/kg PO 24 h after starting fluconazole 5 mg/kg PO q 24 h, 2 hr): 39.9 ng/mL
concentration at 4 h ([1]; methadone 1 mg/kg PO 24 h after starting fluconazole 5 mg/kg PO q 24 h, 4 hr): 31.4 ng/mL
concentration at 6 h ([1]; methadone 1 mg/kg PO 24 h after starting fluconazole 5 mg/kg PO q 24 h, 6 hr): 24 ng/mL
concentration at 8 h ([1]; methadone 1 mg/kg PO 24 h after starting fluconazole 5 mg/kg PO q 24 h, 8 hr): 18.4 ng/mL
concentration at 12 h ([1]; methadone 1 mg/kg PO 24 h after starting fluconazole 5 mg/kg PO q 24 h, 12 hr): 15.3 ng/mL
concentration at 24 h ([1]; methadone 1 mg/kg PO 24 h after starting fluconazole 5 mg/kg PO q 24 h, 24 hr): 5.5 ng/mL
Plasma methadone concentration (not exceeded in any of 6 dogs) ([1]; methadone alone 1 mg/kg PO): ≤ 2 ng/mL
Plasma methadone concentration, individual dogs ([1]; methadone alone 1 mg/kg PO, 0 hr): <0.5 ng/mL
Plasma methadone concentration, individual dogs ([1]; methadone alone 1 mg/kg PO, 0.333 hr): <0.5 ng/mL (3×) and 1.3 ng/mL (2×) and 1.9 ng/mL
Plasma methadone concentration, individual dogs ([1]; methadone alone 1 mg/kg PO, 0.667 hr): 1.9 ng/mL and 1.2 ng/mL and 0.7 ng/mL and 1.3 ng/mL and 1.5 ng/mL and 1.0 ng/mL
Plasma methadone concentration, individual dogs ([1]; methadone alone 1 mg/kg PO, 1 hr): 1.2 ng/mL (2×) and 1.5 ng/mL and 1.4 ng/mL and 1.1 ng/mL
Plasma methadone concentration, individual dogs ([1]; methadone alone 1 mg/kg PO, 2 hr): <0.5 ng/mL (2×) and 0.8 ng/mL and 1.3 ng/mL and 0.6 ng/mL and 0.9 ng/mL
Plasma methadone concentration, individual dogs ([1]; methadone alone 1 mg/kg PO, 4 hr): <0.5 ng/mL (2×) and 1.0 ng/mL and 0.5 ng/mL and 0.7 ng/mL
Plasma methadone concentration, individual dogs ([1]; methadone alone 1 mg/kg PO, 6 hr): <0.5 ng/mL
Plasma methadone concentration, individual dogs ([1]; methadone alone 1 mg/kg PO, 8 hr): <0.5 ng/mL
Plasma methadone concentration, individual dogs ([1]; methadone alone 1 mg/kg PO, 12 hr): <0.5 ng/mL
Plasma methadone concentration, individual dogs ([1]; methadone alone 1 mg/kg PO, 24 hr): <0.5 ng/mL
Plasma methadone concentrations median (range) ([2]; injectable methadone 0.5 mg/kg SC q 4 h, Day 1 4:00 PM): 14.4 (5.4-32.9)^1
Plasma methadone concentrations median (range) ([2]; injectable methadone 0.5 mg/kg SC q 4 h, Day 1 8:00 PM): 22.4 (14.8-47.7)
Plasma methadone concentrations median (range) ([2]; injectable methadone 0.5 mg/kg SC q 4 h, Day 2 5:00 PM): 2.0 (0-10)^1,2
Plasma methadone concentrations median (range) ([2]; oral methadone/fluconazole/naltrexone formulation 0.5 mg/kg (methadone) PO q 12 h, Day 1 4:00 PM): 20.6 (2.6-30.3)^2
Plasma methadone concentrations median (range) ([2]; oral methadone/fluconazole/naltrexone formulation 0.5 mg/kg (methadone) PO q 12 h, Day 1 8:00 PM): 17.6 (2.0-29.8)^1
Plasma methadone concentrations median (range) ([2]; oral methadone/fluconazole/naltrexone formulation 0.5 mg/kg (methadone) PO q 12 h, Day 2 5:00 PM): 14.1 (3.6-41.7)^2,3
Plasma methadone concentrations median (range) ([2]; oral methadone/fluconazole/naltrexone formulation 1 mg/kg (methadone) PO q 12 h, Day 1 4:00 PM): 36.2 (3.2-67.7)^1,2
Plasma methadone concentrations median (range) ([2]; oral methadone/fluconazole/naltrexone formulation 1 mg/kg (methadone) PO q 12 h, Day 1 8:00 PM): 27.7 (2.1-54.8)^1
Plasma methadone concentrations median (range) ([2]; oral methadone/fluconazole/naltrexone formulation 1 mg/kg (methadone) PO q 12 h, Day 2 5:00 PM): 46.7 (1.4-98.5)^1,3
IV Catheter placement: A. Unable to restrain the dog (number of dogs) [3]: 0
IV Catheter placement: B. The dog was restrained, but was difficult (number of dogs) [3]: 2
IV Catheter placement: C. The dog was restrained with little effort (number of dogs) [3]: 8
IV Catheter placement: D. The dog was unable to sit sternal and had to be supported (number of dogs) [3]: 3
Pre-anesthetic sedation: A. None - no apparent effect (number of dogs) [4]: 0
Pre-anesthetic sedation: B. Mild - drowsy, but still active (number of dogs) [4]: 7
Pre-anesthetic sedation: C. Moderate - drowsy, glazed eyes, but still able to walk without assistance (number of dogs) [4]: 3
Pre-anesthetic sedation: D. Heavy - Very drowsy, unable to walk or requires assistance to walk (number of dogs) [4]: 3
Increase in methadone drug exposure when fluconazole is administered with methadone [5]: 30-35%
Mean plasma concentration of methadone [6]: exceeded 10 ng/mL
